Laboratory results taken from US12090142B2, “Combination therapy for the treatment of cancer” (The Board of Regents of the University of Texas System, priority 2018, dated 2024).

Tests used:
colorectal cancer cells = experiment: Sensitivity of colorectal cancer cells to doxorubicin; type: cell-based; conditions: earlier studies of the inventors
Description: The inventors have also shown that AR inhibition prevents colorectal cancer cells growth in tissue culture, nude mouse xenografts, and chemically-induced animal models of colorectal cancer. Based on these studies, the inventors investigated whether an AR inhibitor such as fidarestat could be used as combination therapy along with immune checkpoint inhibitor such as an anti-PD1 antibody resulting in an increase in the immunotherapeutic efficacy of anti-PD1 and prevent CRC growth.

[1] = Cardiotoxicity associated with anthracycline drugs; conditions: earlier studies of the inventors
[2] = Phase-III clinical trial, diabetic nephropathy; cited from earlier work
MC38 cells = experiment: MC38 subcutaneous tumor model in C57BL/6 WT and ARKO mice, tumor growth; type: in vivo, mouse; conditions: both the CRC models (CT26 and MC38)
Experimental: FIG. 7A-7D: AR deficiency/inhibition increases the efficacy of anti-PD1, decreases immune-related toxicities induced by anti-PD1 in CRC model, MC38. MC38 cells were inoculated subcutaneous in C57BL/6 WT and aldose reductase knockout (ARKO) mice. When tumors became palpable (approximately 40-43 mm^3), mice were randomized and treated with anti-PD-1 (twice a week), AR inhibitor (25 mg/kg/day in drinking water). MC38 tumor was left untreated in Con WT and ARKO or treated with Fid in WT, anti-PD-1 (PD1) in WT and ARKO or combination of both (Combo) in WT mice. Con WT and ARKO mice were also treated with isotype controls (PD-1 iso). […] Tumor growth was measured twice a week and animals were euthanized when the tumor volume reaches 2000 mm^3 in the control mice (approximately 27 days). […] Isolated TILs from tumors were analyzed by flow cytometry for intracellular staining of IFN-γ and granzyme B to analyze the effector function of CD8^+ T and NK cells in TILs. […]
MC38 cells were inoculated subcutaneous in C57BL/6 WT and aldose reductase knockout (ARKO) mice. […] Tumor growth was measured twice a week and animals were euthanized when the tumor volume reaches 2000 mm^3 in the control mice (approximately 27 days). […] Isolated TILs from tumors were analyzed by flow cytometry for intracellular staining of IFN-γ and granzyme B to analyze the effector function of CD8^+ T and NK cells in TILs. […]

CT-26 cells = experiment: CT-26 syngeneic Balb/c mouse tumor model, tumor growth; type: in vivo; conditions: CT-26 syngeneic mouse model
Experimental: CT-26 cells (0.5×10^6) were injected subcutaneously into the flanks of Balb/c mice (n=4-7) on day 0. When tumor volume reaches approximately 45 mm^3, the mice were injected (i.p.) anti-PD-1, 200 μg/mouse, twice per week. Aldose reductase inhibitor (ARI) (25 mg/kg/day) were given in drinking water or by gavage. CT26 tumor were left untreated (Con) or treated with fidarestat (Fid), anti-PD-1 (PD1) or combination of both (Combo). Con mice were also treated with isotype matched control antibodies (PD-1 iso). Tumor growth was measured twice per week and animals were euthanized when the tumor volume reaches 2000 mm^3 in the control mice (˜30 days). Tumor volume (A) and tumor weight (B) were measured. Data Mean S.E.M. P<0.05; *P<0.05; **P<0.01 by one-way ANOVA followed by Dunnet and Tukey's multiple comparison test.

Compound: NC(=O)[C@@H]1C[C@]2(NC(=O)NC2=O)c2cc(F)ccc2O1 [fidarestat, (2S,4S)-6-fluoro-2′,5′-dioxospiro(chroman-4,4′-imidazolidine)-2-carboxamide]
- sensitivity of colorectal cancer cells to doxorubicin (colorectal cancer cells): increased the sensitivity
- cardiotoxicity associated with anthracycline drugs [1]: prevented cardiotoxicity
- side effects [2]: no major side effects
- efficacy of anti-PD1 and tumor growth (MC38 cells): increases the efficacy of anti-PD1 and decreases the tumor growth
- sensitivity of anti-PD1 immunotherapy (CT-26 cells): significantly increases the sensitivity of anti-PD1 immunotherapy
